Laboratory results: article PMC5445473, “Identification of Enterococcus faecalis enzymes with azoreductases and/or nitroreductase activity” (BMC Microbiology, 2017)

Columns and labels:
Assay in all cases: LC-ESI-MS of natively purified enzyme; activity of apo-enzyme restored by FMN
Type in all cases: binding
Details in all cases: native purification; apo-enzyme assay with 5 uM FMN, pH 7, 35 °C
EF1181 = target: T1, EF1181 (Enterococcus faecalis, UniProt Q836D4)
T1 construct: gene EF_1181; E. coli XL1Blue; about 30 kDa; forward primer starts after the initiator Met
T1 sequence (Q836D4 2-244): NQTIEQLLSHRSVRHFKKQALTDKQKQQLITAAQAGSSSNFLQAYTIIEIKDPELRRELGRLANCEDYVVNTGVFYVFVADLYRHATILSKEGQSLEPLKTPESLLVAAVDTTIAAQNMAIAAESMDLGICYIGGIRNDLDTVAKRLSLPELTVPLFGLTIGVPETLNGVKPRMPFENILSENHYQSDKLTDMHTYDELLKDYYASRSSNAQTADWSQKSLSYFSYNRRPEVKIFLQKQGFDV

AzoA = target: T2, AzoA (Enterococcus faecalis, UniProt Q831B2)
T2 construct: gene azoR; E. coli XL1Blue; about 25 kDa; forward primer starts after the initiator Met
T2 sequence (Q831B2 2-208): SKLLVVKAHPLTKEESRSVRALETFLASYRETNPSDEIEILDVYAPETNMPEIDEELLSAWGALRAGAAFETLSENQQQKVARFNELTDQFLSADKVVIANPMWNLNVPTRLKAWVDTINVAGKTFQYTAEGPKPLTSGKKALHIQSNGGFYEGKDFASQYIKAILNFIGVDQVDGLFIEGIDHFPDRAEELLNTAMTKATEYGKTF

EF0648 = target: T3, EF0648 (Enterococcus faecalis, UniProt Q838C2)
T3 construct: gene EF_0648; E. coli XL1Blue; about 25 kDa
T3 sequence (Q838C2 2-205): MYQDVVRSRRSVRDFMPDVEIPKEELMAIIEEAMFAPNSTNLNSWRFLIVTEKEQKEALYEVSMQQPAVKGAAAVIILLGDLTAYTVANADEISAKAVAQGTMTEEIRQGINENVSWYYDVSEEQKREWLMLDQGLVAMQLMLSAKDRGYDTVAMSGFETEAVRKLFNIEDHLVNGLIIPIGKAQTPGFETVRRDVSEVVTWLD

EF0404 = target: T4, EF0404 (Enterococcus faecalis, UniProt Q838N5)
T4 construct: gene EF_0404; E. coli XL1Blue; about 25 kDa; forward primer starts after the initiator Met
T4 sequence (Q838N5 2-211): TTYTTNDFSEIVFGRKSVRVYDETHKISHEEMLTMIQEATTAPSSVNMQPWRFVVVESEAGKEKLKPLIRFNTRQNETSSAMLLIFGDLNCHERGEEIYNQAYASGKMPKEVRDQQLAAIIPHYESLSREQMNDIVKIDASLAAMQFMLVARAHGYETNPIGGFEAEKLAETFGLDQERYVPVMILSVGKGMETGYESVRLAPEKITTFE

EF0655 = target: T5, EF0655 (Enterococcus faecalis, UniProt Q838B7)
T5 construct: gene EF_0655; E. coli XL1Blue; about 22 kDa; forward primer starts after the initiator Met
T5 sequence (Q838B7 2-198): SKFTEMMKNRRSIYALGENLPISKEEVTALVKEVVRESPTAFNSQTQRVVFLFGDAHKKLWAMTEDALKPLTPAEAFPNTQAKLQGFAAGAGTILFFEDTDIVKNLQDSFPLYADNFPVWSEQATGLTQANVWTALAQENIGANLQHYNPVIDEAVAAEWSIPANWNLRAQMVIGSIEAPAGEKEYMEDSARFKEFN

With `Cc1cc2nc3c(=O)[nH]c(=O)nc-3n(C[C@H](O)[C@H](O)[C@H](O)COP(=O)(O)O)c2cc1C` [FMN] the “LC-ESI-MS of natively purified enzyme; activity of apo-enzyme restored by FMN” value (shortened to “LC-ESI-MS of natively purified enzyme”) (EF1181) was “confirmed FMN presence for the enzymes purified using native conditions”, the “LC-ESI-MS of natively purified enzyme” value (AzoA) was “confirmed FMN presence for the enzymes purified using native conditions” and the “LC-ESI-MS of natively purified enzyme” value (EF0648) was “confirmed FMN presence for the enzymes purified using native conditions”. The “LC-ESI-MS of natively purified enzyme” value (EF0404) was “confirmed FMN presence for the enzymes purified using native conditions” and the “LC-ESI-MS of natively purified enzyme” value (EF0655) was “confirmed FMN presence for the enzymes purified using native conditions”.
